Values of other authors, collected in patent US10413512B2, “Nicotine-containing granulate” (priority 2008, dated 2019).

Tests used:
[1] = base form
[2] = oral administration
[3] = in vivo

CN1CCC[C@H]1c1cccnc1 [Nicotine, (S)-3-(1-Methyl-2-pyrrolidinyl)pyridine]
miscibility with water [1]: miscible with water | oral bioavailability [2]: about 30% | half life in the body [3]: around two
